Reference: the NIST ThermoML archive (doi:10.1016/j.jct.2015.01.007)

Details: for molar entropy: 101.33 kPa

O=P([O-])([O-])[O-].[Fe+2].[Li+] [iron(II) lithium phosphate]
molar entropy [J/K/mol]
Details	Crystal 1, combination of DSC and relaxation calorimetry	Crystal 2, relaxation calorimetry
5 K	–	0.0577
10 K	–	0.1645
15 K	–	0.5534
20 K	–	1.241
25 K	–	2.309
30 K	–	3.785
35 K	–	5.708
40 K	–	8.078
42 K	–	9.158
45 K	–	10.96
46 K	–	11.63
47 K	–	12.33
48 K	–	13.07
49 K	–	13.86
49.24 K	14.06	14.06
50 K	14.7	–
51 K	15.21	–
52 K	15.67	–
53 K	16.11	–
54 K	16.53	–
55 K	16.95	–
60 K	19.01	–
65 K	21.09	–
70 K	23.23	–
80 K	27.71	–
90 K	32.41	–
100 K	37.27	–
110 K	42.25	–
120 K	47.28	–
130 K	52.34	–
140 K	57.41	–
150 K	62.46	–
160 K	67.48	–
170 K	72.46	–
180 K	77.39	–
190 K	82.26	–
200 K	87.07	–
210 K	91.83	–
220 K	96.51	–
230 K	101.1	–
240 K	105.7	–
250 K	110.2	–
260 K	114.6	–
270 K	119	–
280 K	123.3	–
290 K	127.5	–
298.15 K	130.9	–
300 K	131.7	–
320 K	139.9	–
340 K	147.9	–
360 K	155.6	–
380 K	163.1	–
400 K	170.5	–
420 K	177.6	–
440 K	184.6	–
460 K	191.4	–
480 K	198	–
500 K	204.4	–
520 K	210.8	–
540 K	216.9	–
560 K	223	–
580 K	228.9	–
600 K	234.6	–
620 K	240.3	–
640 K	245.8	–
660 K	251.2	–
680 K	256.5	–
700 K	261.8	–
720 K	266.9	–
740 K	271.9	–
760 K	276.8	–

Details	Triple point temperature [K]
Crystal 2, Relaxation calorimeter	49.24
